Among the data in patent publication US10183953B2, “Substituted 2-azabicycles and their use as orexin receptor modulators” (Janssen Pharmaceutica NV, priority 2013, dated 2019) are Ki values, retold here.

pKi: −log10 of the molar value.

For one assay, the target named is human orexin 1 receptor (Homo sapiens (Human), UniProt O43613). In words: Human orexin 1 receptor radioligand binding (competitive, CHO membranes). Particulars: human OX1 receptor binding; averages from between 2-20 runs; read-out: hOX1 Ki. How it is done: (§1) The in vitro affinity of the compounds of the invention for the rat/human orexin 1 and human orexin 2 receptors was determined by competitive radioligand binding using [^3H]
(§2) Data are analyzed using pc-Sandy macro and graphed on Graphpad Prism 5. For analysis, each concentration point is averaged from triplicate values and the averaged values are plotted on Graphpad Prism. The IC50 was determined by applying the following equation (GraphPad Prism 5.0, SanDiego) for one site competition where X=log (concentration) and Y=specific binding. […] Graphpad Prism calculates Ki value from IC50 and the pre-determined Kd values for [^3H]-(1-(5-(2-fluoro-phenyl)-2-methyl-thiazol-4-yl)-1-((S)-2-(5-phenyl-(1,3,4)oxadiazol-2-ylmethyl)-pyrrolidin-1-yl)-methanone) and [3H]-EMPA. […]
(§3) After centrifugation (2K×G, 5 min at 4° C.), the supernatant was aspirated and the pellets frozen and stored at −80° C. […] Total and nonspecific binding was determined in the absence and presence of 10 μM almorexant. […] Plates were dried in 55° C. oven for 60 min, scintillation fluid was added, and the radioactivity was counted on a Topcount (Packard).

The next assay addresses human orexin 2 receptor (Homo sapiens (Human), UniProt O43614). As to the kind of experiment: Human orexin 2 receptor radioligand binding ([3H]-EMPA, HEK293 membranes). As to conditions: human OX2 receptor binding; averages from between 2-20 runs; read-out: hOX2 Ki. The protocol: as §1, §2
HEK293 stably expressing human orexin 2 receptor (Genebank accession number NM_001526) were grown to confluency in DMEM (Hyclone, cat #SH30022), 10% FBS, 1×Pen/Strep, 1× NaPyruvate, 10 mM HEPES, 600 ug/ml G418 media on 150 cm^2 tissue culture plates, washed with 5 mM EDTA in PBS (HyClone Dulbecco's Phosphate Buffered Saline 1× with Calcium and Magnesium, Cat #SH30264.01, hereafter referred to simply as PBS) and scraped into 50 ml tubes. […] Total and nonspecific binding was determined in the absence and presence of 10 μM almorexant. […]

A further assay has as its target rat orexin 1 receptor (Rattus norvegicus, UniProt P56718). As to the kind of experiment: Rat orexin 1 receptor radioligand binding (competitive, HEK293 membranes). As to conditions: rat OX1 receptor binding; averages from between 2-20 runs; read-out: rOX1 Ki. How it is done:
as §1, §2, §3

Chain of human orexin 1 receptor (O43613 whole entry): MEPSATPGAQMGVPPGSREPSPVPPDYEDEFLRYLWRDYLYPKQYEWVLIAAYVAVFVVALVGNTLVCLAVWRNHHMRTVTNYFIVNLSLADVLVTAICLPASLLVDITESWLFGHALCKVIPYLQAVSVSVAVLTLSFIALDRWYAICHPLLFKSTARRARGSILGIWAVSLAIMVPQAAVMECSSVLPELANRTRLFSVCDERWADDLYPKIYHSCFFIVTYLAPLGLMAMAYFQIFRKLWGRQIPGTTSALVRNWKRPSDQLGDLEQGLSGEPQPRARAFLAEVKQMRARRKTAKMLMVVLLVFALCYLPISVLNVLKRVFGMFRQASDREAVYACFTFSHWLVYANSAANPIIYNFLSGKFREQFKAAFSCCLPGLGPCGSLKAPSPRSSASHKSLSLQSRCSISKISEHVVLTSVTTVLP
Chain of human orexin 2 receptor (O43614 whole entry): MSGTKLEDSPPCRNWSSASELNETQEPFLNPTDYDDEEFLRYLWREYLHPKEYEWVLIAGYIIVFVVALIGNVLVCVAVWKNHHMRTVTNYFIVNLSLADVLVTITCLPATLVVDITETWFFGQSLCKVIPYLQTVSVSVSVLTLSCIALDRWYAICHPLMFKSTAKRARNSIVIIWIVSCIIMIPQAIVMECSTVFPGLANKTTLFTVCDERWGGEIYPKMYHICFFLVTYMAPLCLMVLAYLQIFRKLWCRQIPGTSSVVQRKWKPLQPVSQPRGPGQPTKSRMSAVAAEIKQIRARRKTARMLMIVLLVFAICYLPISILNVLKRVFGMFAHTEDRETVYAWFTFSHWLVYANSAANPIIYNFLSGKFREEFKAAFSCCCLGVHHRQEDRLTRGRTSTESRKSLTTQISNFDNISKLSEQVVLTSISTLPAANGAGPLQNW

Broadly, the pKi is the Ki on a negative log10 scale, so that one unit is a factor of ten. With `O=C(c1cccc(F)c1-c1ncccn1)N1C[C@@H]2CC[C@H]1[C@H](Nc1cnc(C(F)(F)F)cn1)C2` [Example 80, (3-fluoro-2-(pyrimidin-2-yl)phenyl)((1S,4R,6R)-6-((5-(trifluoromethyl)pyrazin-2-yl)amino)-2-azabicyclo[2.2.2]octan-2-yl)methanone], the results for the negative logarithm of the Ki (pKi) at human orexin 1 receptor, at human orexin 2 receptor and at rat orexin 1 receptor were 8.15, 6.34 and 8.05, respectively.
